Laboratory results from patent US12648918B2, “Use of parabulin for targeting protozoan tubulin for the inhibition of protozoan replication” (Paul Scherrer Institut, priority 2020, dated 2026).

Columns and labels:
[1] = system: human fibroblast cells; test: toxicity assay on cultured human fibroblast cells; assay type: cell-based; details: sub-confluent (proliferating) fibroblasts, 72 hours, 25 μM
Procedure: To assess the potential of parabulin as a bona fide anti-parasitic agent, its effects were evaluated on cultures of human cells and growth of the apicomplexan parasite Toxoplasma gondii within human cells. […] CA4 has well-defined anti-mitotic activity due to its disruption of vertebrate MTs.
FIG. 4(A) depicts a toxicity assay showing the effect of parabulin and CA4 on cultured human fibroblast cells.

[2] = system: Toxoplasma gondii; test: T. gondii tachyzoite replication; assay type: cell-based; details: 36 h after addition; controls above 96% eight cell-stage
Procedure: (§1) In order to assess the efficacy of parabulin, T. gondii tachyzoite replication was followed 36 h after addition of parabulin. […] A T. gondii plaque assay was used to determine the concentration at which parasite replication is reduced by half (EC50 value). When confluent fibroblast monolayers were infected with wild-type tachyzoites and left to grow for seven days, lytic parasite growth created visible holes in the vertebrate fibroblast monolayer. Both the plaque numbers and sizes were reduced by parabulin treatment.

[3] = biological target: T1, T. thermophila MTs (Tt-MT) (Tetrahymena thermophila, UniProt P41351+P41352); test: TIRF microscopy MT dynamics reconstitution assay; assay type: biochemical
T1 construct: it was decided to isolate tubulin dimers from a protozoa organism; from tissue; host or cells: Tetrahymena thermophila cells (native tubulin isolated from the ciliate)
Excerpt: FIG. 1(D) is a plot of Tt-MT plus-end growth rates as a function of tubulin concentration. Error bars represent the mean +/−95% CI. […] Left: outside view. The α- and β-tubulin monomers are shown in ribbon representation and colored in dark and light gray, respectively. […] Right: tubulin dimer models fitted into a sliced, transparent and zoomed-in view. The paclitaxel structure in stick representation is highlighted in magenta. Lateral contacts between protofilaments are indicated in blue (H2-S3 in α2 and β2), red (H1-S2 in α2 and β2) and green (M loop in α1 and β1).
(§2) To test if parabulin is able to bind to tubulin, its activity was assessed in vitro on dynamic MTs using our TIRF microscopy reconstitution assay. In contrast to the dynamic periods of growth and shrinkage observed for T. thermophila MTs (FIG. 1C), the addition of parabulin led to a striking reduction in the numbers of growth events (FIG. 3A).
FIG. 3(A) is a plot showing the quantification of the Tt-MT growth events in TIRF microscopy MT dynamics reconstitution assays in the presence of the indicated drugs. Error bars represent the mean +/−95% CI. […] Error bars represent the mean +/−95% CI. […] FIG. 3(C) represents the Tt-MT length in the presence of the indicated drugs (40 μM). Error bars represent the mean +/−95% CI.
The average number of growth events per 10-minute movie decreased from 41.3 to 3.8 even though the number of MT seeds immobilized on the cover slide was similar.

[4] = system: Toxoplasma gondii; test: T. gondii plaque assay; assay type: cell-based; details: seven days
Procedure: as §1

[5] = system: T. thermophila; test: turbidity based T. thermophila cell growth inhibition assay; design: species or system Tetrahymena thermophila; details: parabulin 50 μM (FIG. 2D)
Excerpt: Zoom outs showing differences in the Taxane-, Pironetin—and Colchicine-sites between T. thermophila (light grey) and H. sapiens (wheat) tubulin. The three distinct zones of the Colchicine site are highlighted by colored transparent ovals. Amino acid residue differences between human and protozoa tubulin are indicated. […] FIG. 2(C) represents the chemical structures of CA4 and parabulin. The two CA4 rings, denoted A and B, are highlighted as well as the linker (yellow). FIG. 2(D) is a plot showing the time course of T. thermophila cell growth in the presence of CA4 (20 μM) or parabulin (50 μM; error bars corresponding to the standard deviation of triplicate measurements).
To assess the activity of any putative anti parasitic compound, a turbidity based T. thermophila cell growth inhibition assay was put in place in parallel to the efforts to solve T. thermophila MT and tubulin structures.
as §2

[6] = drugs 40 μM, one-way ANOVA vs DMSO

T1 sequence (P41352 whole entry): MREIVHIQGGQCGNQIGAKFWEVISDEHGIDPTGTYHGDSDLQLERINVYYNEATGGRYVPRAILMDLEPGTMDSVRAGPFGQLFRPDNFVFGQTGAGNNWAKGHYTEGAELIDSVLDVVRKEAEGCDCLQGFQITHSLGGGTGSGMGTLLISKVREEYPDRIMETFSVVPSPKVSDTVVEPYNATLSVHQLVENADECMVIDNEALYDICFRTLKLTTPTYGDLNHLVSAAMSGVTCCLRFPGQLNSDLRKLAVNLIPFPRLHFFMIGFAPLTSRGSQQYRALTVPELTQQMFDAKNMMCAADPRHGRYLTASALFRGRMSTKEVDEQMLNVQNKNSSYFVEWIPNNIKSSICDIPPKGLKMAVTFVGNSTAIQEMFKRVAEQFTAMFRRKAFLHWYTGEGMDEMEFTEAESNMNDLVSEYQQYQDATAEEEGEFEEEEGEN
T1 sequence (P41351 whole entry): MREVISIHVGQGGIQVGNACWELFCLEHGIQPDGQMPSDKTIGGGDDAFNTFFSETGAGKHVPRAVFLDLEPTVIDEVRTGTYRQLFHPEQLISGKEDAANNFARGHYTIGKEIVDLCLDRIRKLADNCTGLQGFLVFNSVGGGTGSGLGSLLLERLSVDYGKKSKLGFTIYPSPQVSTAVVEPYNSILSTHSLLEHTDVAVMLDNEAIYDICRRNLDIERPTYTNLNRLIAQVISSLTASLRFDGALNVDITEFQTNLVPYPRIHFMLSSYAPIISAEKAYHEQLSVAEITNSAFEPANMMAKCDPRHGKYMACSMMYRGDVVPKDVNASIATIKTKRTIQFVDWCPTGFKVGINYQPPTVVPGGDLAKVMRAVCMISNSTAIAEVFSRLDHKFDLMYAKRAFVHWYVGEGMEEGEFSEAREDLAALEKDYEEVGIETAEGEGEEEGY

COc1ccc(/C=C\c2cc(OC)c(OC)c(OC)c2)cc1O [CA4, Combretastatin A4, reference compound]
cell survival [1]: 46%

COc1ccc(C=CC(=O)NCc2cc(OC)c(OC)c(OC)c2)cc1OC [parabulin, 3-(3,4-dimethoxyphenyl)-N-[(3,4,5-trimethoxyphenyl)methyl]prop-2-enamide]
cell survival [1]: 99%
eight cell-stage parasites (replication) [2]: no eight cell-stage observed
average number of growth events per 10-minute movie ([3]; Tt-MT, control (DMSO) 41.3, similar number of MT seeds): 3.8
Tt-MT growth length vs control [3, 6]: no significant differences
Tt-MT growth rate vs control [3, 6]: no significant differences
EC50 ([4]; Toxoplasma gondii, 168 h, confluent fibroblast monolayers, wild-type tachyzoites, read-out: EC50 (plaque area relative to control)): 6.5 µM
plaque numbers and sizes [4]: reduced
T. thermophila cell growth [5]: inhibited T. thermophila cell growth
